Values of other authors in patent US10220017B2, “Liquid pharmaceutical compositions comprising SGLT-2 inhibitors” (Boehringer Ingelheim Vetmedica GmbH, priority 2015, dated 2019).

Conditions: n-octanol/water; values taken from http://www.chemicalize.org/

Compared with `CCO` [ethanol], `CC(O)CO` (stereo not drawn) [propane-1,2-diol] is lower in log10P: −0.16 for the first, −0.79 for the second.

In the case of `OCC(O)CO` [propane-1,2,3-triol], the log10P is listed as −1.84.
